{
  "source": "patent US20040126325A1",
  "about": "“Medicinal aerosol solution formulation products with improved chemical stability” (priority 2002, published 2004)",
  "key": {"[1]": {"experiment": "Stability of Budesonide solution formulations: recovery of budesonide after storage", "assay_type": "physicochemical", "experimental": "Cans of Budesonide in solution according to the following formulation were manufactured: […]\nBudesonide 400 mg (200 mcg/shot)\nAnodized and lacquered cans and non ethanol extracted valves were utilized. The cans were put on stability at 50° C. (inverted)\nCans with the same formulation were prepared and in this case ethanol extracted valves were utilized."}, "[2]": {"experiment": "Stability of Budesonide solution formulations: determination of degradation products (related substances)", "assay_type": "physicochemical", "experimental": "Two cans of anodized aluminum prepared as per example 2 were submitted to the determination of degradation products of the active ingredient.\nIt was noticed in this way that after a lag time of 6 months at 40° C. the degradation rate increases with the same pattern seen in the first example. […] An explanation of the process is that peroxides may leach into the solution after a while, thus starting a radicalic degradation of Budesonide."}},
  "data": [
    {"compound": "CCCC1O[C@@H]2C[C@H]3[C@@H]4CCC5=CC(=O)C=C[C@]5(C)[C@H]4[C@@H](O)C[C@]3(C)[C@]2(C(=O)CO)O1", "note": "(stereo partly shown) [Budesonide]", "values": [
      {"measurement": "Degradation observed", "setting": "[1]; anodized and lacquered cans, non ethanol extracted valves, 50° C. inverted", "result": "high degree of degradation"},
      {"measurement": "Stability of the solution formulation", "setting": "[1]; ethanol extracted valves, compared with non extracted valves (Example 1)", "result": "much higher stability"},
      {"measurement": "Lag time after which the degradation rate increases", "setting": "[2]; 40° C., anodized aluminum cut edge cans, ethanol extracted valves, inverted, does not occur if stored upright", "result": 6, "unit": "months"},
      {"measurement": "Stability of the solution", "setting": "[2]; finishing of the cans changed from cut edge to rolled neck", "result": "greatly increased"}
    ]}
  ]
}
